Reference: article PMC3867503 (PLoS ONE, 2013)
Where “and” joins values, the source holds several entries; their conditions need not be identical. Equal values may be shown once. Entries after “also recorded” stand apart in the source; their conditions may differ. Read-outs that look alike come from different tables or passages of the source.

Experiments:
recombinant human EYA3 [1] = molecular target: T1, recombinant human EYA3 (Homo sapiens, UniProt Q99504); assay: pNPP hydrolysis by EYA3 (tyrosine phosphatase enzyme assay); assay type: biochemical; settings: for IC50: recombinant human EYA3, substrate pNPP, read-out: IC50 (95% confidence intervals), pNPP hydrolysis by EYA3
T1 construct: a splice variant of Q99504 corresponding to isoform 2 and missing residues 1 - 126; made in house
T1 sequence (Q99504 1-447 isoform Q99504-2): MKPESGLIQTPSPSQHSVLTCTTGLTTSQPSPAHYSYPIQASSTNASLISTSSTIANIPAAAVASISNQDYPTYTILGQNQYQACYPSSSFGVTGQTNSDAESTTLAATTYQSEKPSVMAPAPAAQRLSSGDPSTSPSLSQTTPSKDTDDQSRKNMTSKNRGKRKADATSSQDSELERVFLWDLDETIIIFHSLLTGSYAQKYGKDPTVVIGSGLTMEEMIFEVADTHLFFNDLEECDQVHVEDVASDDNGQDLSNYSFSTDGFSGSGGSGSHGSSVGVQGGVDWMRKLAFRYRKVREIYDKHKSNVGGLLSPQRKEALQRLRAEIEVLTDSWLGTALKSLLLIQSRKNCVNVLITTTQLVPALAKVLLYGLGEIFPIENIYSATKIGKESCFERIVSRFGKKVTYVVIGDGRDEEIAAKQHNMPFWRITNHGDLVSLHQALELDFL
Protocol: Purification of recombinant EYA3 has been reported previously. Assays using the colorimetric substrate p-nitrophenylphosphate were conducted as previously reported.
Enzymatic assays were conducted using recombinant human EYA3 (a splice variant of Q99504 corresponding to isoform 2 and missing residues 1 - 126) purified as described. The chromogenic substrate para-nitrophenylphosphate (pNPP) was used to measure catalytic activity of EYA3. […] To assay potential EYA inhibitors, the compounds were pre-incubated with EYA3, pNPP added, and the formation of the p-nitrophenolate product measured. […] In addition, an ex vivo examination of sprouting angiogenesis was conducted using the aortic ring assay.

HUVECs [2] = assay: HUVEC proliferation / cell viability assay (WST-8); assay type: cell-based, human; settings: for effect on cell viability / proliferation: 72 hours
Protocol: 75% confluent HUVECs (<passage 8) were washed with PBS and trypsinized, deactivated with 10% FBS, spun down and counted. 1000 cells/well were seeded in triplicate in 100 μl EGM-2 complete medium either with inhibitors (in 0.2% DMSO) or vehicle alone (0.2% DMSO). After 0 hrs, 24 hrs, 48 hrs, 72 hrs of incubation at 37°C in […] 10 μl WST-8 was added to each well and incubated for 2 hours in the dark, at 37°C, […]. Absorption was read at 450 nm. Fold change was calculated as the ratio of the OD450 at the experimental time point and at the start of the experiment (0 hours).
A cell viability assay was conducted over 3 days of exposure to the test compounds in order to assess both the possibility of immediate cellular toxicity as well as any effect on cell proliferation. HUVECs were seeded and equilibrated for 24 hours before addition of the test compounds. Cellular metabolic activity was measured at defined time-points using the tetrazolium dye WST-8 to quantify NAD(P)H-dependent cellular oxidoreductase enzyme activity.
Figure 2 Proliferation of HUVECs in the presence of 7.5 μM test compounds. Cell viability was measured at 72 hours post-seeding. Asterisk represents significant differences between groups (*** P<0.001, * P<0.05).

HUVECs [3] = assay: Scratch wound healing (cell migration) assay; assay type: cell-based, human
Protocol: 10^5 HUVECs/well were seeded on 24-well plates and cultured until they reached confluency in EGM-2. The monolayers were then scratch-wounded using a 200 μl pipette tip, washed with PBS, and incubated with EGM-2 complete medium and either EYA Inhibitors or vehicle control (0.2% DMSO). Wounds were photographed immediately upon insult, and at various time-points following wounding using a phase-contrast microscope. The number of cells that migrated into the cleared area was counted using the Cell Counter function of ImageJ [20].
The effect of the test compounds on cell migration was assessed using a scratch wound healing assay and HUVEC cells. Cells were plated and grown to confluency. Scratch wounds were made using a sterile pipette tip, the medium changed to remove any cellular debris, and fresh medium with either vehicle or test compound was introduced. The number of cells that migrated into the cleared space was counted 22 hours later. […] Previous experiments had shown a role for EYA3 in trans-well migration of HUVECs. […] Lentiviral shRNA targeting EYA3 in HUVECs led to greater than 80% reduction in EYA3 protein levels (Figure 4A).
Figure 3 Lateral migration of HUVECs in the presence of test compounds. […] (B) Number of cells that migrate into the wounded area was counted using the Cell Counter functionality of ImageJ. […]

HUVECs [4] = assay: Tubulogenesis assay on growth-factor reduced Matrigel; assay type: cell-based, human
Protocol: Growth factor reduced Matrigel was thawed overnight on ice at 4°C. 40 μl Matrigel was added to each well of a 96-well plate and incubated for 30 mins to polymerize. 10,000 cells in 100 μl EGM-2 complete medium with either inhibitors or vehicle control (0.2% DMSO) were added to each well. Plates were incubated for 24 hours at 37°C, 5% CO2 and then photographed at 5X magnification. Tube length was measured using the NeuronJ plugin [21] for the NIH ImageJ software.
Primary endothelial cells (ECs) on basement membrane rapidly attach, align themselves and form capillary-like tubules with lumens and tight cell-cell contacts. […] To better understand the stage in matrigel tube-formation affected by 6OH-BBR we followed cells plated on growth-factor reduced matrigel and treated with either vehicle or 6OH-BBR (Figure 5C). Differences become apparent within the first two hours and are clearly visible at the 6-hour time-point. The ECs are much less organized in the presence of 6OH-BBR.
(A) Representative phase-contrast images of HUVECs plated on growth-factor reduced Matrigel in the presence of the indicated doses of test compounds, photographed 16 hours after plating. (B) Quantitation of the number of tube-like structures formed by HUVECs in the presence of test compounds. The number of tubes was measured using NeuronJ. […]

[5] = test system: aortic ring explants from C57BL/6 mice; assay: Aortic ring sprouting assay (ex vivo); settings: mouse aortic rings in collagen, initially 7.5 μM, 10-day treatment
Protocol: The preparation of rat collagen and the aortic ring assay were carried out as previously described. Briefly, aortic ring explants were obtained from C57BL/6 mice aged 4 to 6 weeks and cultured at 37°C in a humidified incubator under a 5% CO2 atmosphere in serum-free EBM. Within 30 minutes of dissection the rings were placed in a 3D collagen matrix supported by a UV-sterilized nylon mesh ring with inner and outer diameters of 3 mm and 5.6 mm, respectively. The matrix was prepared by mixing 8 parts of collagen solution, 1 part of 10x M199 and 1 part of 23.4mg/ml NaHCO3. After another 30 min incubation at 37°C, the assembly was transferred into a well of 96-well plate filled with 150 μl of culture medium; either control medium consisting of 0.1% DMSO in EBM, 2.5% FBS, penicillin/streptomycin and 20ng/ml VEGF165 or the test inhibitor dissolved in the control medium. Each compound was applied over a 10-day period with medium changes every two days. […]
This assay allows for analysis of cell proliferation, migration, tube formation, micro-vessel branching, and perivascular recruitment. […] All the test compounds were initially assayed at 7.5 μM and the number of branch-points counted. […]
Figure 6 Effect of test compounds on aortic ring sprouting. […] (B) Quantitation of the number of sprouts per ring with each bar representing at least 4 rings. *** P<0.001, ** P<0.01, * P<0.05, ns not significant).

[6] = cited from earlier work; for half-life: as previously reported; for maximal plasma concentration: single oral dose of 100 mg
HUVECs [7] = settings: cited from earlier work
[8] = design: method as in PMID 22398967; settings: cited from earlier work
recombinant human EYA3 [9] = molecular target: T1, recombinant human EYA3; settings: recombinant EYA3, substrate pNPP; reported previously; read-out: IC50 (95% confidence intervals), pNPP hydrolysis by EYA3; cited from earlier work

Cc1oc2ccccc2c1C(=O)c1cc(I)c(O)c(I)c1 [BZI]
IC50 (recombinant human EYA3 [1]): 8.9 µM

CCc1oc2ccc(O)cc2c1C(=O)c1cc(Br)c(O)c(Br)c1 [Compound 5OH-BBR, 5-hydroxy benzbromaorne]
IC50 (recombinant human EYA3 [1]): 49.4 µM

CCc1oc2cc(O)ccc2c1C(=O)c1cc(Br)c(O)c(Br)c1 [Compound 6OH-BBR, 6-hydroxybenzbromarone]
IC50 relative to BBR (recombinant human EYA3 [1]; EYA3 inhibition in vitro): over twice | IC50 (recombinant human EYA3 [1]): 21.5 µM | reduction in cell proliferation (HUVECs [2]; 7.5 μM test compound, 72 hours post-seeding): over 50% | effect on cell proliferation at the 24-hour time-point (HUVECs [2]; 24 hours): attenuated cell proliferation | reduction of cell migration (HUVECs [3]; 7.5 μM test compound, 22 hours after wounding): ~80% | inhibition of tube formation (in words) (HUVECs [4]): much stronger inhibitory effect than BZ | attenuation of aortic ring sprouting (in words) [5]: most potent inhibitor | half-life [6]: 30 h

CCc1oc2ccc(O)cc2c1C(=O)c1ccc(O)cc1 [Compound 5OH-BZ]
IC50 (recombinant human EYA3 [1]): > 150 µM

CCc1oc2ccccc2c1C(=O)c1cc(Br)c(O)c(Br)c1 [BBR, Benzbromarone]
effect on cell viability / proliferation (HUVECs [2]; 7.5 μM test compound): reduced cell viability; also recorded: significant inhibition of cell proliferation | effect on proliferation of HUVECs in the first 24 hours (HUVECs [7]): does not influence proliferation | half-life [6]: 3 h | maximal plasma concentration ([6]; rapid eliminators): 3.9 μg/ml and ~ 9.2 μM | maximal plasma concentration ([6]; slow eliminator): 9.17 μg/ml and ~ 21.8 μM

CCCCc1oc2ccccc2c1C(=O)c1cc(I)c(O)c(I)c1 [ODAA]
IC50 (recombinant human EYA3 [1]): 3.1 µM | effect on cell viability / proliferation (HUVECs [2]; 7.5 μM test compound): small but significant positive effect on cell proliferation | inhibition of cell migration (in words) (HUVECs [3]): relatively weak inhibitor | inhibition of tube formation (in words) (HUVECs [4]): relatively weak inhibitor | fraction bound to plasma protein [8]: ~ 99.9%

CC(O)CCc1oc2ccccc2c1C(=O)c1cc(I)c(O)c(I)c1 (centres unmarked) [OH-ODAA]
IC50 (recombinant human EYA3 [1]): 16.4 µM

CC(O)c1oc2ccccc2c1C(=O)c1cc(Br)c(O)c(Br)c1 (centres unmarked) [1’OH-BBR, 1’-hydroxybenzbromarone]
IC50 (recombinant human EYA3 [1]): 52.5 µM

Cc1oc2ccccc2c1C(=O)c1ccc(O)cc1 [DMBZ]
IC50 (recombinant human EYA3 [1]): 135 µM

CCc1oc2ccccc2c1C(=O)c1ccc(O)cc1 [BZ, Benzarone, reference compound]
effect on cell viability / proliferation (HUVECs [2]; 7.5 μM test compound): reduced cell viability; also recorded: significant inhibition of cell proliferation | IC50 (recombinant human EYA3 [9]): 17.5 µM | effect on proliferation of HUVECs in the first 24 hours (HUVECs [7]): does not influence proliferation

Cc1oc2ccccc2c1C(=O)c1ccc(O)c(I)c1 [DIBZI]
IC50 (recombinant human EYA3 [1]): 20.5 µM | effect on cell viability / proliferation (HUVECs [2]; 7.5 μM test compound): small but significant positive effect on cell proliferation
